Measurements published in US7939253B2, “Methods and compositions for the diagnosis and treatment of ewing's sarcoma” (The University of Utah Research Foundation, priority 2007, dated 2011).

Tests used:
[1] = tested on: A673 Ewing's sarcoma cells; assay: Soft agar colony formation in the presence of histone deacetylase inhibitor; format: cell-based; details: 1.5 uM, versus ethanol carrier, FIG. 6
Procedure: Cell Culture: Ewing's sarcoma cell lines were grown as described (Lessnick et al., 2002). Following retroviral infection, polyclonal cell populations were prepared by growth in the appropriate selective media. Soft agar assays were performed as described (Lessnick et al., 2002). Tet-A673 cells were generated by infection with pREV-TETOFF (Clontech) and selection with G418. A single clone was then infected with FLAG-EWS/FLI-pREV-TRE, and selected with hygromycin in the presence of 1 ug/ml doxycycline and G418 (Lessnick et al., 2002). Individual clones were tested for induction of FLAG-EWS/FLI as previously described (Lessnick et al., 2002).
To test the effect of a histone deacetylase inhibitor on NKX2.2 activity, A673 Ewing's sarcoma cells were seeded into soft agar in the presence of 1.5 uM tricostatin (TSA), or ethanol (the TSA carrier) (FIG. 6). […] Soft agar colony formation is one measure of oncogenic transformation. Thus, the histone deacetylase inhibitor TSA blocks oncogenic transformation of Ewing's sarcoma cells.

casein kinase II (CKII) = casein kinase II (CKII) (Homo sapiens, UniProt P68400); details: 5 μg/ml; cited from earlier work
Chain of casein kinase II (CKII) (P68400 whole entry): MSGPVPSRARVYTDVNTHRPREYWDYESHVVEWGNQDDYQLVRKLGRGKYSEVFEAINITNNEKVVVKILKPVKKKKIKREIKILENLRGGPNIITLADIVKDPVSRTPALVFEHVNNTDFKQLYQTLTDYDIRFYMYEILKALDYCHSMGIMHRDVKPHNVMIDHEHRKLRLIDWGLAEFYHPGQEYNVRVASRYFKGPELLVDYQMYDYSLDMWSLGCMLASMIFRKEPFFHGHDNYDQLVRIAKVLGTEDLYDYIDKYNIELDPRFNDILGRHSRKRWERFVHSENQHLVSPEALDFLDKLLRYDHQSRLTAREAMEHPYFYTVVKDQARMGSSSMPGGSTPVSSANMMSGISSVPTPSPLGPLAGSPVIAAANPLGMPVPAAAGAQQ

CC(/C=C/C(=O)NO)=C\[C@@H](C)C(=O)c1ccc(N(C)C)cc1 [TSA, Trichostatin A]
soft agar colony formation (oncogenic transformation) [1]: prevents Ewing's cells from forming colonies in soft agar

heparin
inhibition of the protein kinase activity of CKII (casein kinase II (CKII)): > 90%
